“Also recorded” adds a separate entry of the source.
System: NF-κB
Test: NF-κB electrophoretic mobility shift assay (EMSA) on cultured, treated milk cells from chronic mastitis-affected cows
Assay type: cell-based, Holstein-Friesian cows
Details: protein extraction 3 hours after treatment, versus untreated cells
Experimental: Isolated milk cells were centrifuged for 10 minutes at 300 g and the pellet was resuspended in 600 μl lysis buffer (0.1% nonidet P-40; 10 mM Tris HCl, pH 7.4; 10 mM NaCl; 3 mM MgCl2; 1 mM EDTA; 2 mM orthovanadate; 1 mM diisopropyl fluorophosphates (DFP); 10 μg/ml leupeptin; 10 μg/ml aprotinin). The cells were vortexed 15 seconds, kept on ice for 5 minutes, and centrifuged for 10 minutes at 300 g. The resulting pellet was resuspended in a KCl buffer (10 mM Hepes, pH 7.4; 400 mM KCl; 10% Glycerol; 2 mM EDTA; 1 mM Ethylene glycol-bis[β-aminoethyl ether]-N, N,N′N′-tetraacetic acid (EGTA); 1% nonidet P-40, 1 mM dithiothreitol (DTT); 2 mM orthovanadate; 10 μg/ml leupeptin; 10 μg/ml aprotinin; 1 mM DFP) and kept at 4° C. for 10 minutes before centrifugation for 15 minutes at 12,000 g. The supernatant was diluted three times and stored at −80° C. until use.
Binding reactions were performed for 30 minutes at room temperature with 5 μg of total protein extracts in 20 mM Hepes (pH 7.9), 10 mM KCl, 0.2 mM EDTA, 20% (v/v) glycerol, 1% (w/v) acetylated bovine serum albumin, 3 μg of poly(dI-dC) (Amersham Pharmacia Biotech, Aylesbury, U.K.), 1 mM DTT (dithiothreitol), 1 mM phenylmethylsulfonyl fluoride, and 100,000 cpm of ^32P-labeled double-stranded oligonucleotide probes. Probes were prepared by annealing the appropriate single-stranded oligonucleotides (Eurogentech, Liège, Belgium) at 65° C. for 10 minutes in 10 mM Tris, 1 mM EDTA, and 10 mM NaCl, followed by slow cooling to room temperature. The probes were labeled by end-filling with the Klenow fragment of E. coli DNA polymerase I (Roche, Mannheim, Germany), with [^32P]dATP and [^32P]dCTP (Dupont-New England Nuclear, Les Ulis, Fance). Labeled probes were purified by spin chromatography on Sephadex G-25 columns (Roche). […] The amount of specific complexes was determined by photodensitometry of the autoradiography. […] The NF-κB activity was assessed by photodensitometry of the specific bands. […]

With `CN1C(=O)[C@]23CC4=CC=C[C@H](O)[C@H]4N2C(=O)[C@@]1(CO)SS3` [glyotoxine, gliotoxin] the “NF-κB activity (DNA-binding activity by EMSA, photodensitometry)” value (“NF-κB activity” below) (gliotoxine at 1 μl/ml) was “reduced NF-κB activity” and the “NF-κB activity” value (gliotoxine at 1 μl/ml, listed as gliotoxine) was “inhibit NF-κB activation”.

For `CCCCCC=CC=C1C(=O)C=C[C@@H]1CC=CCCCC(=O)O` [15d-PGJ2, 15-deoxy-Δ.12,14-prostaglandin J2], the “NF-κB activity” value (15d-PGJ2 at 40 μM, 50 μM, 60 μM and 80 μM) was “reduced NF-κB activity; also recorded: inhibit NF-κB activation”.

Source: patent publication US20060240011A1, “Use of nf-kappa b inhibitors for the treatment of mastitis” (priority 2002, published 2006)
